Test results taken from paper PMC9014295 (Frontiers in Pharmacology, 2022).
“Also recorded” adds a separate entry of the source.

Tests used:
[1] = tested on: fosab gene expression in zebrafish liver; test: qRT-PCR of fosab gene expression in zebrafish liver; assay type: in vivo, Danio rerio; settings: β-actin reference
Method: (§1) As previously described by [Zhang et al. (2020]), the treated zebrafish larvae liver and human L02 cells were collected for the qRT-PCR analysis. Total RNA were extracted from L02 cells and the dissected liver of larvae by using TRIzol reagent (Sigma–Aldrich, Saint Louis, MO, United States) and synthesized cDNA using M-MLV reverse transcriptase (Promega, M1708). The reaction of qRT-PCR was performed by LightCycler480. The relative mRNA levels were calculated with β-actin as the reference gene using the comparative […] quantization method. The specific primers (5′-3′) for amplification in zebrafish are as follows: fosab (F: TTACCAGCCTTAACGCCGAC, R: TGGACCATCCACTGCAAGTC), β-actin (F: CCGTGACATCAAGGAGAAG, R: ATACCGCAAGATTCCATACC). The primer sequences (5′-3′) for qRT-PCR in L02 cells are as follows: c-fos (F: TACTACCACTCACCCGCAGA, R: GGCCTCCTGTCATGGTCTTC), β-actin (F: CACCATTGGCAATGAGCGGTTC, R: AGGTCTTTGCGGATGTCCACGT).

zebrafish fosab gene = test: RNA-seq analysis of zebrafish larvae liver (fosab); assay type: in vivo, Danio rerio; settings: 2 mM; for Fold change of fosab gene (RNA-seq): exposed 3 dpf, collected 6 dpf
Method: As previously described ([Han et al., 2018a]), the process of ribonucleic acid sequencing (RNA-seq) analysis was carried out by CapitalBio Corporation (Beijing, China). […] Cytoscape software was employed to map the drug–pathway network.

[2] = tested on: zebrafish liver, transgenic Tg (fabp10: dsRed) zebrafish larvae; test: Visual assessment of liver toxicity in zebrafish; assay type: in vivo, Danio rerio; settings: exposure 3 dpf for 72 h, imaged at 6 dpf
Method: Wild-type AB strain zebrafish (Danio rerio) and transgenic Tg (fabp10: dsRed) zebrafish in this study were reared in a standard laboratory environment with a 14-h light/10-h dark cycle at 28 ± 1°C ([Chen et al., 2019]). As previously described ([Zhang et al., 2020]), 3 days post-fertilization (3 dpf), zebrafish larvae were exposed to compound solutions at different concentrations for 72 h. For visual assessment of liver toxicity in zebrafish, the tested zebrafish larvae were imaged by using a fluorescence microscope to observe the liver phenotype of zebrafish larvae, 20 larvae per group.

[3] = tested on: c-fos gene expression in L02 cells; test: qRT-PCR of c-fos gene expression in L02 cells; assay type: cell-based, human; settings: β-actin reference
Method: as §1

human L02 cells [4] = test: Cell viability of L02 cells by CCK-8 assay; assay type: cell-based; settings: 24 h, different concentrations
Method: As previously described by [Zhang et al. (2020]), the human L02 cells were incubated with each macrolide compounds at different concentrations for 24 h. For cell viability, Cell Counting Kit-8 (CCK-8; Dojindo, CK04) was used by following the manufacturer’s protocol and the absorbance of each well was measured at 450 nm using a microplate reader. For cell toxicity, the level of lactate dehydrogenase (LDH) release was determined by LDH activity assay kits (Dojindo, CK12) according to the manufacturer’s specification, and the absorbance at 490 nm in each well was measured by a microplate reader.

human L02 cells [5] = test: LDH release assay in L02 cells; assay type: cell-based; settings: 24 h, different concentrations
Method: As previously described by [Zhang et al. (2020]), the human L02 cells were incubated with each macrolide compounds at different concentrations for 24 h. […] For cell toxicity, the level of lactate dehydrogenase (LDH) release was determined by LDH activity assay kits (Dojindo, CK12) according to the manufacturer’s specification, and the absorbance at 490 nm in each well was measured by a microplate reader.

[6] = cited from earlier work; for Hepatotoxicity compared with erythromycin: ref Björnsson, 2017

Compound | Effect on fosab mRNA level (RNA-seq, GO enrichment analysis) (zebrafish fosab gene) | Fold change of fosab gene (RNA-seq) (zebrafish fosab gene) | Liver phenotype of zebrafish larvae ([2]; 0.5 mm) | c-fos mRNA level (qRT-PCR) [3] | further results
CCC1OC(=O)C(C)C(OC2CC(C)(OC)C(O)C(C)O2)C(C)C(OC2OC(C)CC([N+](C)(C)[O-])C2O)C(C)(O)CC(C)CN(C)C(C)C(O)C1(C)O (stereo not drawn) [Impurity L] | upregulated significantly | 4.10 | liver tissue became black | significantly upregulated; also recorded: greatest effect | fosab mRNA level (qRT-PCR) [1]: greatest effect; Liver phenotype of zebrafish larvae ([2]; 0.1 mM): hepatomegaly and caused the liver lost transparency with a brown coloration
CCC1OC(=O)C(C)C(OC2CC(C)(OC)C(O)C(C)O2)C(C)C(OC2OC(C)CC(N(C)C)C2O)C2(C)CC(C)C(=NC(C)C(O)C1(C)O)O2 (stereo not drawn) [Impurity Q] | upregulated significantly | 3.07 |  | significantly upregulated | 
CCC1OC(=O)C(C)C(O)C(C)C(OC2OC(C)CC(N(C)C)C2O)C(C)(O)CC(C)CN(C)C(C)C(O)C1(C)O (stereo not drawn) [Impurity J] | upregulated significantly | 2.92 |  | significantly upregulated | 
CCC1OC(=O)C(C)C(OC2CC(C)(OC)C(O)C(C)O2)C(C)C(OC2OC(C)CC(N(C)C=O)C2O)C(C)(O)CC(C)CN(C)C(C)C(O)C1(C)O (stereo not drawn) [Impurity F] | no significant effect |  | nearly non-toxic to zebrafish liver | did not affect | Cytotoxicity / cell viability (CCK-8) (human L02 cells [4]): less cytotoxicity; Liver phenotype of zebrafish larvae ([2]; 1 mm): nearly non-toxic to zebrafish liver
CCC1OC(=O)C(C)C(OC2CC(C)(OC)C(O)C(C)O2)C(C)C(OC2OC(C)CC(NC)C2O)C(C)(O)CC(C)CN(C)C(C)C(O)C1(C)O (stereo not drawn) [Impurity I] | upregulated significantly | 2.14 |  | significantly upregulated | 
CC[C@H]1OC(=O)[C@H](C)C(=O)[C@H](C)[C@@H](O[C@@H]2O[C@H](C)C[C@H](N(C)C)[C@H]2O)[C@](C)(OC)C[C@@H](C)C(=O)[C@H](C)[C@H]2N(CCCCn3cnc(-c4cccnc4)c3)C(=O)O[C@]12C [Telithromycin] |  |  | a dark coloration and amorphous liver | significantly elevated | Cytotoxicity (LDH release) (human L02 cells [5]): higher cytotoxicity than azithromycin; fosab mRNA level (qRT-PCR) [1]: significantly elevated; Cytotoxicity / cell viability (CCK-8) (human L02 cells [4]): higher cytotoxicity than azithromycin; Liver injury in clinical use ([6]; ref Author Anonymous, 2012): pulled from the market due to severe acute liver injury; Liver phenotype of zebrafish larvae ([2]; 0.1 mM): hepatomegaly
CC[C@H]1OC(=O)[C@H](C)[C@@H](O[C@H]2C[C@@](C)(OC)[C@@H](O)[C@H](C)O2)[C@H](C)[C@@H](O[C@@H]2O[C@H](C)C[C@H](N(C)C)[C@H]2O)[C@](C)(O)C[C@@H](C)CN(C)[C@H](C)[C@@H](O)[C@]1(C)O [Azithromycin] |  |  | hepatomegaly |  | Hepatotoxicity compared with erythromycin [6]: higher hepatotoxicity than erythromycin; Liver phenotype of zebrafish larvae ([2]; 0.1 mM): no toxicity to zebrafish liver; Liver phenotype of zebrafish larvae ([2]; 1 mm): blackened liver tissue
CCC1OC(=O)C(C)C(OC2CC(C)(OC)C(O)C(C)O2)C(C)C(OC2OC(C)CC(N(C)C)C2O)C(C)(O)CC(C)C2=NC(C)C(O2)C1(C)O (stereo not drawn) [Impurity R] | upregulated significantly | 2.18 |  | significantly upregulated; also recorded: moderately lower than azithromycin | 
CC[C@H]1OC(=O)[C@H](C)[C@@H](O[C@H]2C[C@@](C)(OC)[C@@H](O)[C@H](C)O2)[C@H](C)[C@@H](O[C@@H]2O[C@H](C)C[C@H](N(C)C)[C@H]2O)[C@](C)(OC)C[C@@H](C)C(=O)[C@H](C)[C@@H](O)[C@]1(C)O [Clarithromycin] |  |  |  |  | Hepatotoxicity compared with erythromycin [6]: less hepatotoxicity than erythromycin
CC[C@H]1OC(=O)[C@H](C)[C@@H](O[C@H]2C[C@@](C)(OC)[C@@H](O)[C@H](C)O2)[C@H](C)[C@@H](O[C@@H]2O[C@H](C)C[C@H](N(C)C)[C@H]2O)[C@](C)(O)C[C@@H](C)/C(=N\OCOCCOC)[C@H](C)[C@@H](O)[C@]1(C)O [Roxithromycin] |  |  |  |  | Hepatotoxicity compared with erythromycin [6]: less hepatotoxicity than erythromycin
CCC1OC(=O)C(C)C(OC2CC(C)(OC)C(O)C(C)O2)C(C)C(OC2OC(C)CC(N(C)C)C2O)C(C)(O)CC(C)C(=NO)C(C)C(O)C1(C)O (stereo not drawn) [Impurity S] | no significant effect |  |  | did not affect | Cytotoxicity / cell viability (CCK-8) (human L02 cells [4]): less cytotoxicity
